Experimental data taken from US6544989B2, “Benzazoles: benzoxazole, benzthiazole and benzimidazole derivatives” (Syngenta Limited, priority 1998, dated 2003).

Legend:
Musca domestica = conditions: 500 ppm by weight; knockdown assessed 15 minutes after treatment
[1] = test system: Phytophthora infestans lycopersici; type: in vivo; conditions: METHOD 2 (unbanded)
Meloidogyne incognita = experiment: Nematode test, J2 infective juveniles of Meloidogyne incognita, mortality; conditions: 12.5 ppm; J2 infective juveniles suspended in solution; mortality after three days
Puccinia recondita = experiment: Fungicidal test, Puccinia recondita (PUCCRT) on wheat, PRCO; type: in vivo; conditions: METHOD 2 (unbanded)

Compound	MUSCDO AC = Musca domestica (knockdown), score (Musca domestica)	PHYTIN 1 d Prot/Foir PRCO [1]	MELGIN = Meloidogyne incognita, grading of mortality (score) (Meloidogyne incognita)	PUCCRT 1 d Prot/Foir PRCO (Puccinia recondita)
COCCOCN(C(=O)Cc1ccc2oc(C)nc2c1)c1snc(C)c1Cl [2(M3)]	0 (0 indicates less than 40% mortality)	83	0 (0 indicates less than 40% mortality)	68
C#CCN(C(=O)Cc1ccc2oc(CCC)nc2c1)c1snc(C)c1Cl [4(F3)]	0 (0 indicates less than 40% mortality)	99	0 (0 indicates less than 40% mortality)	100
CCCc1nc2cc(CC(=O)N(C)c3snc(C)c3Cl)ccc2o1 [4(B3)]	0 (0 indicates less than 40% mortality)	100	0 (0 indicates less than 40% mortality)	48
Cc1nsc(NC(=O)Cc2ccc3oc(S)nc3c2)c1Cl [352(A3)]	0 (0 indicates less than 40% mortality)	100	0 (0 indicates less than 40% mortality)	100
CCN(C(=O)Cc1ccc2oc(C)nc2c1)c1snc(C)c1Cl [2(C3)]	9 (9 indicates 80-100% mortality)	150	0 (0 indicates less than 40% mortality)	74
CCCc1nc2cc(CC(=O)N(COCC)c3snc(C)c3Cl)ccc2o1 [4(L3)]	9 (9 indicates 80-100% mortality)	100	0 (0 indicates less than 40% mortality)	100
COCN(C(=O)Cc1ccc2oc(C)nc2c1)c1snc(C)c1Cl [2(K3)]	9 (9 indicates 80-100% mortality)	98	0 (0 indicates less than 40% mortality)	97
C#CCN(C(=O)Cc1ccc2oc(CC(C)(C)C)nc2c1)c1snc(C)c1Cl [15(F3)]	0 (0 indicates less than 40% mortality)	100	0 (0 indicates less than 40% mortality)	95
Cc1nsc(NC(=O)Cc2ccc3oc(-c4cccnc4Cl)nc3c2)c1Cl [343(A3)]			0 (0 indicates less than 40% mortality)	
CC=Cc1nc2cc(CC(=O)Nc3snc(C)c3Cl)ccc2o1 [45(A3)]	9 (9 indicates 80-100% mortality)		0 (0 indicates less than 40% mortality)	
Cc1nsc(NC(=O)Cc2ccc3oc(Cc4cccs4)nc3c2)c1Cl [334(A3)]			0 (0 indicates less than 40% mortality)	
Cc1nsc(NC(=O)Cc2ccc3oc(Cl)nc3c2)c1Cl [174(A3)]	0 (0 indicates less than 40% mortality)		0 (0 indicates less than 40% mortality)	
COCN(C(=O)Cc1ccc2oc(CC(C)(C)C)nc2c1)c1snc(C)c1Cl [15(K3)]	0 (0 indicates less than 40% mortality)		0 (0 indicates less than 40% mortality)	
Cc1nsc(NC(=O)Cc2ccc3oc(-c4ccc([N+](=O)[O-])cc4Cl)nc3c2)c1Cl [267(A3)]			0 (0 indicates less than 40% mortality)	
Cc1nsc(NC(=O)Cc2ccc3oc(C(F)(F)C(F)(F)Cl)nc3c2)c1Cl [86(A3)]			0 (0 indicates less than 40% mortality)	
Cc1nsc(NC(=O)Cc2ccc3oc(-c4ccccc4F)nc3c2)c1Cl [272(A3)]			0 (0 indicates less than 40% mortality)	
Cc1nsc(NC(=O)Cc2ccc3oc(-c4ccno4)nc3c2)c1Cl [349(A3)]			0 (0 indicates less than 40% mortality)	
